From ChEMBL document CHEMBL1201862, “PubChem BioAssay data set” (2004)
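Interpolation was linear, between the two tested concentrations surrounding the appropriate level; five concentrations were tested over 48 hours in 96-well plates. GI50: concentration for 50% inhibition of growth.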 Calls of active or inactive are those of the source. Rule as the data show it: active = GI50 up to about 1.1 µM and inactive = higher.

Legend:
Experiment in all cases: NCI-60 cell line screen, 48 h
786-0 = tested on: 786-0
TK-10 = tested on: TK-10
OVCAR-8 = tested on: OVCAR-8
M14 = tested on: M14
SF-295 = tested on: SF-295
PC-3 = tested on: PC-3
MDA-MB-231 = tested on: MDA-MB-231
ACHN = tested on: ACHN
SNB-75 = tested on: SNB-75
HCT-15 = tested on: HCT-15
SK-OV-3 = tested on: SK-OV-3
HOP-62 = tested on: HOP-62
IGROV-1 = tested on: IGROV-1
COLO 205 = tested on: COLO 205
SK-MEL-2 = tested on: SK-MEL-2
MCF7 = tested on: MCF7
KM12 = tested on: KM12
OVCAR-5 = tested on: OVCAR-5
LOX IMVI = tested on: LOX IMVI
SR = tested on: SR

Compound: CNC(=O)CCCN(C)C(=O)CCCCC(=O)N(C)C
- GI50 (786-0): > 55.3 µM (inactive)
- GI50 (TK-10): > 56.8 µM (inactive)
- GI50 (OVCAR-8): > 60.8 µM (inactive)
- GI50 (M14): > 100 µM (inactive)
- GI50 (SF-295): > 59.2 µM (inactive)
- GI50 (PC-3): > 54.3 µM (inactive)
- GI50 (MDA-MB-231): > 37.8 µM (inactive)
- GI50 (ACHN): > 61.1 µM (inactive)
- GI50 (SNB-75): > 53.8 µM (inactive)
- GI50 (HCT-15): > 60.4 µM
- GI50 (SK-OV-3): > 61.5 µM (inactive)
- GI50 (HOP-62): > 100 µM (inactive)
- GI50 (IGROV-1): > 58.7 µM (inactive)
- GI50 (COLO 205): > 57.7 µM (inactive)
- GI50 (SK-MEL-2): > 50.9 µM (inactive)
- GI50 (MCF7): > 62.2 µM (inactive)
- GI50 (KM12): > 59.7 µM (inactive)
- GI50 (OVCAR-5): > 100 µM (inactive)
- GI50 (LOX IMVI): > 57.5 µM (inactive)

Compound: COc1cc2c(cc1-c1coc3cc(O)ccc3c1=O)OCO2 [CUNEATIN]
- GI50 (786-0): 15.7 µM (inactive)
- GI50 (TK-10): 20.9 µM (inactive)
- GI50 (OVCAR-8): 19.3 µM (inactive)
- GI50 (M14): 71 µM (inactive)
- GI50 (SF-295): 20.4 µM (inactive)
- GI50 (PC-3): 43 µM (inactive)
- GI50 (MDA-MB-231): > 10 µM (inactive)
- GI50 (ACHN): 20.1 µM (inactive)
- GI50 (SNB-75): 20.5 µM (inactive)
- GI50 (HCT-15): 18.6 µM
- GI50 (SK-OV-3): 19.9 µM (inactive)
- GI50 (HOP-62): 16.4 µM (inactive)
- GI50 (IGROV-1): 22.9 µM (inactive)
- GI50 (COLO 205): > 100 µM (inactive)
- GI50 (SK-MEL-2): 37 µM (inactive)
- GI50 (MCF7): 35.3 µM (inactive)
- GI50 (KM12): 33.3 µM (inactive)
- GI50 (OVCAR-5): 40.2 µM (inactive)
- GI50 (LOX IMVI): 46.6 µM (inactive)

Compound: COC1OCC(O)C(NC(=O)N(C)N=O)C1O (centres undefined)
- GI50 (OVCAR-8): > 100 µM (inactive)
- GI50 (SF-295): > 100 µM (inactive)
- GI50 (SNB-75): > 100 µM (inactive)
- GI50 (HCT-15): > 100 µM
- GI50 (SK-OV-3): > 100 µM (inactive)
- GI50 (HOP-62): > 100 µM (inactive)
- GI50 (IGROV-1): > 100 µM (inactive)
- GI50 (COLO 205): > 100 µM (inactive)
- GI50 (SK-MEL-2): > 100 µM (inactive)
- GI50 (MCF7): > 100 µM (inactive)
- GI50 (KM12): > 100 µM (inactive)
- GI50 (OVCAR-5): > 100 µM (inactive)
- GI50 (LOX IMVI): > 100 µM (inactive)

Compound: COc1nc(NC2OCC(OC(C)=O)C(OC(C)=O)C2OC(C)=O)c(/N=C(\C)C(C)=O)c(=O)n1C (centres undefined)
- GI50 (TK-10): > 100 µM (inactive)
- GI50 (OVCAR-8): > 100 µM (inactive)
- GI50 (M14): > 100 µM (inactive)
- GI50 (SF-295): > 100 µM (inactive)
- GI50 (ACHN): > 100 µM (inactive)
- GI50 (SNB-75): > 100 µM (inactive)
- GI50 (HCT-15): > 100 µM
- GI50 (IGROV-1): > 100 µM (inactive)
- GI50 (COLO 205): > 100 µM (inactive)
- GI50 (SK-MEL-2): > 100 µM (inactive)
- GI50 (SR): > 100 µM (inactive)
- GI50 (KM12): > 100 µM (inactive)
- GI50 (OVCAR-5): > 100 µM (inactive)
- GI50 (LOX IMVI): > 100 µM (inactive)

Compound: O=C1CNCCCN2CCN(CCCNCC(=O)Nc3ccc(cc3)S(=O)(=O)c3ccc(cc3)NC(=O)CNCCCN3CCN(CCCNCC(=O)Nc4ccc(cc4)S(=O)(=O)c4ccc(cc4)N1)CC3)CC2
- GI50 (786-0): 16.3 µM (inactive)
- GI50 (TK-10): 20.8 µM (inactive)
- GI50 (OVCAR-8): 24.8 µM (inactive)
- GI50 (M14): 46 µM (inactive)
- GI50 (SF-295): 20.5 µM (inactive)
- GI50 (PC-3): 42.3 µM (inactive)
- GI50 (MDA-MB-231): 22.5 µM (inactive)
- GI50 (ACHN): 25.6 µM (inactive)
- GI50 (SNB-75): 37.2 µM (inactive)
- GI50 (HCT-15): 21 µM
- GI50 (SK-OV-3): > 100 µM (inactive)
- GI50 (HOP-62): 25.1 µM (inactive)
- GI50 (IGROV-1): 21.2 µM (inactive)
- GI50 (COLO 205): 34.8 µM (inactive)
- GI50 (SK-MEL-2): 35.1 µM (inactive)
- GI50 (MCF7): 46.1 µM (inactive)
- GI50 (KM12): 27.2 µM (inactive)
- GI50 (OVCAR-5): 31.4 µM (inactive)
- GI50 (LOX IMVI): 21 µM (inactive)

Compound: CCOc1ccc(/C=C2\N=C(c3ccccc3)OC2=O)cc1
- GI50 (TK-10): > 100 µM (inactive)
- GI50 (OVCAR-8): > 100 µM (inactive)
- GI50 (M14): > 100 µM (inactive)
- GI50 (SF-295): > 100 µM (inactive)
- GI50 (PC-3): > 100 µM (inactive)
- GI50 (ACHN): > 100 µM (inactive)
- GI50 (SNB-75): 83 µM (inactive)
- GI50 (HCT-15): > 100 µM
- GI50 (SK-OV-3): > 100 µM (inactive)
- GI50 (HOP-62): > 100 µM (inactive)
- GI50 (IGROV-1): > 100 µM (inactive)
- GI50 (SK-MEL-2): > 100 µM (inactive)
- GI50 (MCF7): > 100 µM (inactive)
- GI50 (SR): > 100 µM (inactive)
- GI50 (KM12): > 100 µM (inactive)
- GI50 (OVCAR-5): > 100 µM (inactive)

Compound: Cc1ccc(-c2cc(=O)c3cc(C)c(C)c(C(=O)O)c3o2)cc1C
- GI50 (786-0): > 100 µM (inactive)
- GI50 (TK-10): > 100 µM (inactive)
- GI50 (OVCAR-8): > 100 µM (inactive)
- GI50 (M14): > 100 µM (inactive)
- GI50 (SF-295): > 100 µM (inactive)
- GI50 (ACHN): > 100 µM (inactive)
- GI50 (SNB-75): > 100 µM (inactive)
- GI50 (HCT-15): > 100 µM
- GI50 (SK-OV-3): > 100 µM (inactive)
- GI50 (HOP-62): > 100 µM (inactive)
- GI50 (IGROV-1): > 100 µM (inactive)
- GI50 (COLO 205): > 100 µM (inactive)
- GI50 (SK-MEL-2): > 100 µM (inactive)
- GI50 (SR): > 100 µM (inactive)
- GI50 (KM12): > 100 µM (inactive)
- GI50 (OVCAR-5): > 100 µM (inactive)
- GI50 (LOX IMVI): > 100 µM (inactive)

Compound: COC(=O)[C@]1(C)C(OC)=CC(=O)C2C1[C@H]1CCC[C@@H]21 (some centres undefined)
- GI50 (786-0): > 100 µM (inactive)
- GI50 (TK-10): > 100 µM (inactive)
- GI50 (OVCAR-8): > 100 µM (inactive)
- GI50 (M14): > 100 µM (inactive)
- GI50 (SF-295): > 100 µM (inactive)
- GI50 (ACHN): > 100 µM (inactive)
- GI50 (SNB-75): > 100 µM (inactive)
- GI50 (HCT-15): > 100 µM
- GI50 (SK-OV-3): > 100 µM (inactive)
- GI50 (HOP-62): > 100 µM (inactive)
- GI50 (IGROV-1): > 100 µM (inactive)
- GI50 (COLO 205): > 100 µM (inactive)
- GI50 (SK-MEL-2): > 100 µM (inactive)
- GI50 (SR): > 100 µM (inactive)
- GI50 (KM12): > 100 µM (inactive)
- GI50 (OVCAR-5): > 100 µM (inactive)
- GI50 (LOX IMVI): > 100 µM (inactive)
